Data from patent US20240408071A1, “NOVEL COMBINATION OF SEROTONIN RECEPTOR (5-HTR2B) ANTAGONIST AND AN IMMUNOMODULATOR AND CHEMOTHERAPEUTIC DRUGS FOR INHIBITION OF CANCER” (NATIONAL CENTRE FOR CELL SCIENCE, priority 2021, published 2024).

Key:
4T1-Luc2 cells = test: 4T1-Luc2 breast cancer model, tumor volume; assay type: in vivo, BALB/c mice; settings: RS-127445 2 mg/kg/day + paclitaxel 2 mg/kg/alternate days; 4T1-luc2 model (FIG. 16A)
Protocol: FIG. 7 depicts that antagonizing the 5-HTR2B in mice inhibits breast and colon tumor growth: (A) MC38 colon cancer cells were injected subcutaneously into the right flank of C57BL/6 mice. […] Tumor volumes were measured and plotted. (B) MC38 colon cancer cells were injected subcutaneously into the right flank of C57BL/6 mice. After seven days when tumors became palpable, one group was treated with 5-HTR7 antagonist SB-269970 (n=6 mice; 3 mg/kg/day) or left untreated (n=6 mice). Tumor volume was measured and plotted. (C) After seven days of the setting of tumor growth, one group was treated with a serotonin transporter blocker (SSRI) sertraline hydrochloride (n=6 mice; 15 mg/kg/week) or left untreated (n=6 mice). Tumor volume was measured and plotted. (D) C57BL/6 mice were given subcutaneously injected MC38 cells. After seven days of tumor growth, one group of mice was treated with different doses of 5-HTR2B antagonist SB-215505 (n=6). Tumor volume was measured and plotted. […] Tumor volume was measured and plotted. […] Tumor growth was measured and plotted. […] Tumour volumes were measured and plotted. […] Tumour volumes were measured and plotted. […]
FIG. 16 depicts the effect of the 5-HTR2B antagonist on the FDA-approved chemotherapy drug treatment: (A) BALB/C mice were inoculated with 4T1-Luc2 cells in the mammary fat pad. […] Tumor volume was measured and plotted. […]

MC38 cells = test: Cell cycle analysis of MC38 cells by propidium iodide staining (flow cytometry); assay type: cell-based, mouse; settings: 48-hour stimulation; BW-723C86 50 μM, SB-215505 50 μM per FIG. 6 legend
Protocol: FIG. 6 depicts that 5-HTR2B signalling in colon cancer affects cell proliferation and viability: Colon cancer MC38 cells were treated with serotonin (100 μM), 5-HTR2B agonist (BW-723C86; 50 μM), or 5-HTR2B antagonist (SB-215505; 50 μM) for 48 hours, and cell cycle analysis was performed by propidium iodide staining using flow cytometry. MC38 cells were also treated with a graded dose of 5-HTR2B agonist (BW-723C86) or serotonin. MTT assay was performed to measure cell viability. (A) After treatment with 5-HTR2B agonist BW-723C86, serotonin, or 5-HTR2B antagonist SB-215505, the relative cell cycle analysis is shown. (B) Relative cell viability data of MC38 cells following treatment of graded doses of 5-HTR2B agonist BW-723C86 or serotonin are shown. The data shown are representative of one of the three independent experiments. (C) MC38 tumor sections from the control tumor and 5-HTR2B antagonist treated tumor were stained for CD31 and the number of CD31^+ micro-blood vessels/mm^2 of tissue sections was counted and plotted to observe angiogenesis. Error bar represents ±standard error of the mean (SEM).
MC38 cells were seeded in 6 well plates at a density of 5×10^4 cells/well. Cells were allowed to accommodate in the environment for 24 hours. The treatment with 5-HTR2B agonist (BW-723C86), Serotonin, and 5-HTR2B antagonist (RS-127445) was performed at different time points. […]

Compound | tumor growth, combination with paclitaxel (4T1-Luc2 cells) | percentage of MC38 cells in the S phase of the cell cycle (MC38 cells)
CC(C)c1cc(-c2ccc(F)c3ccccc23)nc(N)n1 [RS-127445] | much better response by reducing tumor growth than any of them alone | 
CC(N)Cc1c[nH]c2ccc(OCc3cccs3)cc12 (centres unmarked) [BW-723C86] |  | increased percentage of cells in the S phase
